Measurements taken from PMC11973282, “RAS70 peptide targets multiforme glioblastoma by binding to the plasma membrane heat shock protein HSP70” (Frontiers in Oncology, 2025).

Tested on: normal brain tissues
Assay: Ex vivo staining of normal brain tissue from patients with epilepsy
Design: species or system human
Conditions: tissues obtained intraoperatively from patients with epilepsy (n=2)
Protocol: For evaluation of targeting properties of RAS70 peptide in the non-tumorous brain tissues patient-derived samples obtained intraoperatively from patients with drug-resistant epilepsy underwent temporal resection (n=2) were employed.
Small pieces of brain tissue (50-100 mm³) were taken from patients or animals during surgery. The resulting material was washed three times in a PBS solution at room temperature and then stained, gently shaking, for 1 hour with one of the following combinations of dyes: a mixture of Hoechst 33342 (0.1 μg/mL) [Invitrogen, USA], monoclonal antibodies against Hsp70 conjugated with FITC, and RAS70 conjugated with Cy5; a mixture of Hoechst 33342 (0.1 μg/mL), LumiTracker® Mito Green FM [Lumiprobe, Russia], and TKD/NGL-RGD/RAS70 conjugated with sCy5. […] Hoechst 33342 fluorescence was excited with a 405 nm laser and recorded in the range 410 to 550 nm; Hsp70-FITC and Mito Green fluorescence were excited with a 488 nm laser and recorded in the range 495 to 550 nm; and Cy5 fluorescence was excited with a 633 nm laser and recorded in the range 635 to 750 nm. […]
To detect peptide localization, the biopsy material was additionally stained with a mitochondrial marker MitoGreen and anti-Hsp70 antibodies (SPA-810). […] Additionally, we assessed the depth of the RAS70-sCy3/sCy5 penetration into the tumor tissues […]. […]

CC(C)C[C@H](NC(=O)[C@H](CC(C)C)NC(=O)[C@H](CC(N)=O)NC(=O)[C@H](CC(N)=O)NC(=O)[C@H](CC(=O)O)NC(=O)[C@H](CCCCN)NC(=O)[C@@H](N)[C@@H](C)O)C(=O)NCC(=O)N[C@@H](CCCNC(=N)N)C(=O)N[C@@H](Cc1ccccc1)C(=O)N[C@@H](CCC(=O)O)C(=O)N[C@@H](CC(C)C)C(=O)N[C@@H](CO)C(=O)NCC(=O)NCCC(=O)N[C@@H](CCCNC(=N)N)C(=O)NCC(=O)N[C@@H](CC(=O)O)C(=O)O [RAS70]
localization in normal brain tissue: no tissue-specific localization of RAS70 was detected
